From US9938292B2 (GUANGDONG ZHONGSHENG PHARMACEUTICAL CO., LTD, priority 2014, dated 2018)

test system: Hedgehog signaling pathway; assay: Gli-Luc luciferase reporter gene assay in C3H10T1/2/Gli-Luc cells under Shh-N stimulation; assay type: cell-based; conditions: 24 h, luciferase RLU, read-out: biological activity: IC50 of the inhibitory activities of compounds on the hedgehog pathway
Method in brief: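 C3H10T1/2 cells stably carrying a Gli-responsive luciferase reporter were stimulated with 30 nM Shh-N conditioned medium plus compound (7-point dilutions, duplicate) for 24 h at 37 °C. Luciferase luminescence read from lysates; IC50 by sigmoidal fit of RLU versus log concentration.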

| IC50 [nM] | Compound |
| --- | --- |
| ≤ 50 | COc1c(-c2cnc(N3C[C@@H](C)O[C@@H](C)C3)cc2C)cnc2c(-c3ccc(C#N)cc3)cccc12 [Embodiment 167] |

same assay, conditions: Mus musculus, C3H 10T1/2, 24 h, luciferase RLU, read-out: biological activity: IC50 of the inhibitory activities of compounds on the hedgehog pathway

| Compound | IC50 [nM] |
| --- | --- |
| CCC(=O)N1[C@H](C)CN(c2ccc(-c3nc4c(-c5ccc(C#N)cc5)cccc4[nH]3)cn2)C[C@@H]1C [Embodiment 250, 4-(2-(6-(3,5-dimethyl-4-propionylpiperazin-1-yl)pyridin-3-yl)-1H-benzo[d]imidazol-4-yl)benzonitrile] | 100 to 500 |
| CC1CN(c2ccc(N3C[C@@H](C)O[C@@H](C)C3)cc2)C(=O)c2cccc(-c3ccc(C#N)cc3)c21 (stereo partly drawn) [Embodiment 87, 4-(2-(4-((2S,6R)-2,6-dimethylmorpholino)phenyl)-4-methyl-1-oxo-1,2,3,4-tetrahydroisoquinolin-5-yl)benzonitrile] | 100 to 500 |
| COc1c(-c2ccc(N3C[C@@H](C)O[C@@H](C)C3)cc2Cl)cnc2c(-c3ccc(C#N)cc3)cccc12 [Embodiment 170] | ≤ 50 |
| CCC(=O)N1[C@H](C)CN(c2ccc(-c3nnc4c(-c5ccc(C#N)cc5)cccc4c3OC)cn2)C[C@@H]1C [Embodiment 151, 4-(3-(6-(3,5-dimethyl-4-propionylpiperazin-1-yl)pyridin-3-yl)-4-methoxycinnolin-8-yl)benzonitrile] | ≤ 50 |
| CC(C)(O)c1ccc(N2CCN(c3cnc4c(-c5ccc(C#N)cc5)cccc4c3C3CC3)CC2(C)O)nc1 (stereo not drawn) [Embodiment 237, 4-(4-cyclopropyl-3-(3-hydroxy-4-(5-(1-hydroxy-1-methyl-ethyl)pyridin-2-yl)-3-methylpiperazin-1-yl)quinolin-8-yl)benzonitrile] | 100 to 500 |
| Cc1cc(C#N)ccc1-c1cccc2c(C3CC3)c(-c3ccc(N4C[C@@H](C)O[C@@H](C)C4)nc3)cnc12 [Embodiment 125] | ≤ 50 |
| C[C@@H]1CN(c2ccc(-n3cc(Cl)c4c(-c5ccc(C#N)cc5)cccc4c3=O)cc2Cl)C[C@H](C)O1 [Embodiment 76, 4-(4-chloro-2-(3-chloro-4-((2S,6R)-2,6-dimethylmorpholino)phenyl)-1-oxo-1,2-dihydroisoquinolin-5-yl)benzonitrile] | 100 to 500 |

Other lines, results leading:

| IC50 [nM] | Compound |
| --- | --- |
| 100 to 500 | COc1c(-c2ccc(N3C[C@@H](C)O[C@@H](C)C3)c(C)c2)cnc2c(-c3ccc(C#N)cc3)cccc12 [Embodiment 174] |
| 1000 to 5000 | COc1c(-c2ccc(N3C[C@@H](C)O[C@@H](C)C3)nc2)cnc2c(NC(=O)C(C)(C)C)cccc12 [Embodiment 117, N-(3-(6-((2S,6R)-2,6-dimethylmorpholino)pyridin-3-yl)-4-methoxyquinolin-8-yl) pivalamide] |
| 100 to 500 | C[C@@H]1CN(c2ccc(-c3cnc4c(-c5ccc(C#N)cc5)cccc4c3C3CC3)c(C(=O)O)n2)C[C@H](C)O1 [Embodiment 239, 3-(8-(4-cyanophenyl)-4-cyclopropylquinolin-3-yl)-6-(2,6-dimethylmorpholino-4-yl)pyridin-2-carboxylic acid] |
| ≤ 50 | COc1c(-c2ccc(N3C[C@@H](C)O[C@@H](C)C3)cc2F)cnc2c(-c3ccc(C#N)cc3)cccc12 [Embodiment 168, 4-(3-(4-((2S,6R)-2,6-dimethylmorpholino)-2-fluorophenyl)-4-methoxyquinolin-8-yl) benzonitrile] |
| 100 to 500 | CNC(=O)c1ccc(-c2cccc3c(OC)c(-c4ccc(N5C[C@@H](C)O[C@@H](C)C5)cc4)cnc23)cn1 [Embodiment 101] |
| 500 to 1000 | C[C@@H]1CN(c2ccc(-n3ccc4c(-c5ccc(C#N)cc5)cccc4c3=O)cc2Cl)C[C@H](C)O1 [Embodiment 77, 4-(2-(3-chloro-4-((2S,6R)-2,6-dimethylmorpholino)phenyl)-1-oxo-1,2-dihydroisoquinolin-5-yl)benzonitrile] |
| 500 to 1000 | COC(=O)c1c(-c2ccc(N3C[C@@H](C)O[C@@H](C)C3)cc2)cnc2c(-c3ccc(C#N)cc3)cccc12 [Embodiment 128, methyl 8-(4-cyanophenyl)-3-(4-((2S,6R)-2,6-dimethylmorpholino)phenyl)quinoline-4-carboxylate] |
